Source: PubChem BioAssay (NCI)
Values joined by “and” are separate entries in the source; they are usually repeats but may differ in a detail not shown here. Identical values can stand only once.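 Following 48 hours of exposure in 96-well plates, responses at five concentrations were used to interpolate endpoints linearly. Abbreviation: GI50, concentration required for 50% inhibition of growth. TGI: concentration producing complete growth inhibition.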

Legend:
Assay in all cases: growth of human tumour cells (NCI), 48 h
[1] = test system: RXF 393 renal
[2] = test system: U251 CNS
[3] = test system: RPMI-8226 leukemia
[4] = test system: MALME-3M melanoma
[5] = test system: ACHN renal
[6] = test system: OVCAR-3 ovarian
[7] = test system: EKVX NSCLC
[8] = test system: SK-MEL-5 melanoma
[9] = test system: OVCAR-5 ovarian
[10] = test system: COLO 205 colon

Structure (SMILES)	TGI [1]	TGI [2] [µM]	TGI [3]	TGI [4]	TGI [5]	TGI [6]	TGI [7]	TGI [8]	TGI [9] [µM]	TGI [10]	GI50 [1]	GI50 [2] [µM]	GI50 [3] [µM]	GI50 [4] [µM]	GI50 [5]	GI50 [6] [µM]	GI50 [8] [µM]	GI50 [9] [µM]	GI50 [10] [µM]	GI50 [7] [µM]
COc1cc(COC(=O)N(CC(=O)O)c2ccccc2)c([N+](=O)[O-])cc1OC	> 100 µM	> 100	> 100 µM	> 100 µM	> 100 µM	> 100 µM	> 100 µM	> 100 µM	> 100	> 100 µM										
CC(=O)OC(CCC1(C)OC1COc1ccc(CCNC(=O)c2ccccc2)cc1)C(C)(C)OC(C)=O (centres undefined)	43.8 µM	> 100	> 100 µM	80.1 µM	> 100 µM	54.5 µM		17.4 µM	> 100	58.4 µM										
COc1ccc(Nc2c3ccccc3nc3ccccc23)cc1	12.1 µM	14.1	4.66 µM	9.05 µM	5.68 µM	5.78 µM		4.2 µM	23	1.85 µM	2.04 µM	2.55	1.26	1.83	1.28 µM	1.43	1.1	6.15	0.52	
COc1ccc2c(c1)n([O-])c1ccccc1[n+]2=O	81.2 µM and 34.8 µM	> 100	97.1 µM and > 100 µM	> 100 µM and 69.9 µM	41.5 µM and 47.3 µM	> 100 µM and 58.7 µM	> 100 µM and 55.1 µM	98.5 µM and 39.8 µM	> 100	> 100 µM and 74.7 µM	25 µM and 10.3 µM				16.3 µM and 5.24 µM					
N#C/C(=C\NC(=S)c1ccncc1)c1nc2ccccc2s1	> 100 µM	> 100	> 100 µM		> 100 µM	> 100 µM	> 100 µM	> 100 µM	> 100	> 100 µM										
COc1cc(/C=C/C(=O)c2ccc(NC(=O)CN3CCN(c4cc5c(cc4F)c(=O)c(C(=O)O)cn5C4CC4)CC3)cc2)cc(OC)c1OC	0.803 µM	1.47		14.5 µM	> 26.6 µM	1.37 µM		4.39 µM	> 27.1	8.11 µM	0.273 µM	0.373	0.31	2.32	0.692 µM	0.364	0.871	2.96	1.34	
C=C1CC/C=C(\C)C(=O)C[C@@H]2[C@@H]1CC2(C)C	4.33 µM	49.5	> 100 µM	10.5 µM	8.67 µM	20.7 µM	27.3 µM	10.5 µM	27.3	3.87 µM										
C=C(Br)N(CC)CC	> 100 µM	> 100	> 100 µM	> 100 µM	> 100 µM	> 100 µM	> 100 µM	> 100 µM	> 100	> 100 µM										
CSc1ccc(NC(=S)NN(C)C)cc1	> 10 µM	> 10	> 10 µM	> 10 µM	> 10 µM	> 10 µM	> 10 µM	> 10 µM		> 10 µM										
CC(C)CCN=C(N)c1ccc(N2CCN(c3ccc(C(N)=NCCC(C)C)cc3)CC2)cc1	44.9 µM	32.9			> 100 µM	44.8 µM	10.4 µM	7.97 µM	> 100	> 100 µM	7.89 µM	13.9			56.8 µM	11.3	3.06	38.5	8.9	1
CC1OC(OC2C(O[C@H]3CC[C@@]4(C)C(=CC[C@H]5[C@@H]6C[C@@H]7O[C@]8(CC[C@H](C)CN8)[C@@H](C)[C@@H]7[C@@]6(C)CC[C@@H]54)C3)OC(CO)C(O)C2OC2OC(CO)C(O)C(O)C2O)C(O)C(O)C1O (some centres undefined)	31.5 µM	> 100		34.5 µM	31.4 µM		32.3 µM	33.6 µM	28.7	31.8 µM										
COc1cc2c3c(n(CCCI)c(=O)c2cc1OC)-c1cc2c(cc1C3=O)OCO2	> 100 µM	17.5	> 100 µM	54.6 µM	8.34 µM	> 100 µM		8.5 µM	> 100	> 100 µM	6.81 µM	1.21	3.76	7.57	2.14 µM	11.2	1.81	> 100	9.17	
O=[N+]([O-])c1c(Br)sc(Br)c1[N+](=O)[O-]	2.85 µM	5.46	5.54 µM		3.19 µM	3.2 µM	23.8 µM	17.2 µM	6.95	3.38 µM	1.47 µM	2.15	1.91		1.64 µM	1.71	4.88	2.46	1.57	9.3
